Results: article PMC6325200, “Effects of Microplate Type and Broth Additives on Microdilution MIC Susceptibility Assays” (Antimicrobial Agents and Chemotherapy, 2018)
Values after ≈ are worked out from the molar mass of the structure shown. Where two headings read alike, the source gives them in different places.

Legend:
[1] = cited from earlier work
Text: Other assay additives can affect MIC values. […] Plasma protein binding has been implicated as a major factor limiting the active free concentration of many clinically important antibiotics ([37][–][42]).

[2] = cited from earlier work; remark: listed apart in the source
Text: Other assay additives can affect MIC values. […] This in turn translates into reduced ...

[3] = cited from earlier work; for concentration found, % of that expected: PS microtiter plates, [14C]oritavancin
Experimental: (§1) The majority of antibiotic stock solutions for testing are prepared in water, phosphate buffer, or pH-adjusted aqueous solution (106 out of 139 reported in CLSI M100 [see Table 6A, “Solvents and diluents for preparation of stock solutions of antimicrobial agents”]) ([3]). […] Furthermore, the CLSI reference MIC quality control range tabulated for dalbavancin an ...

[4] = system: S. aureus GISA NRS 2; ATCC 700698; experiment: microbe, parasite or virus in culture; details: Corning NBS; MHB -T80; n = 2
Experimental: (§2) A positive control of a row of just the bacteria and a negative control of only the medium were included for every plate tested.
(§3) The compounds along with standard antibiotics were serially diluted 2-fold across the 96-well plates. […] A sample of each culture was then diluted 40-fold in fresh MH broth (in presence and absence of Tween) and incubated at 37°C for 2 to 3 h.

E. faecalis ATCC 29212 = experiment: microbe, parasite or virus in culture; details: Corning NBS; MHB +T80; n = 2
Experimental: as §2, §3

S. pyogenes ATCC 12344 = details: ATCC 12344
Experimental: as §2, §3

MRSA = details: literature value; cited from earlier work
Text: TABLE 1 Literature MIC values for tested antibiotics | column: MIC (µg/ml) (reference[s]) / MRSA

MRSA ATCC 43300 = details: n = 2
Experimental: as §2, §3
For experiments in the presence of surfactant, 2% beractant (25 mg/ml) was added to the mid-log-phase cultures and mixed gently and added to all the 96-well plates. For experiments in the presence of serum, a mixture of 50% of human serum along with 50% MHB was prepared and used throughout the experiment.

S. aureus ATCC 29123 = details: cited from earlier work
Experimental: as §1

## oritavancin
[1]
  protein binding: 82 to 90%
[2]; in vivo
  half-life: 240 to 408 h
[3]; 1 µg/ml
  concentration found, % of that expected: < 10%
[3]; 4 µg/ml
  concentration found, % of that expected: 35%
[3]; 16 µg/ml
  concentration found, % of that expected: approximately 70%
[3]
  underestimation of MIC values in the absence of added polysorbate 80: 16- to 32 fold

## CN[C@H]1C(=O)N[C@@H]2Cc3ccc(cc3)Oc3cc4cc(c3O[C@@H]3O[C@H](C(=O)O)[C@@H](O)[C@H](O)[C@H]3NC(=O)CCCCCCCCC(C)C)Oc3ccc(cc3Cl)[C@@H](O)[C@@H]3NC(=O)[C@H](NC(=O)[C@@H]4NC(=O)[C@@H](NC2=O)c2cc(cc(O)c2Cl)Oc2cc1ccc2O)c1ccc(O)c(c1)-c1c(O[C@H]2O[C@H](CO)[C@@H](O)[C@H](O)[C@@H]2O)cc(O)cc1[C@@H](C(=O)NCCCN(C)C)NC3=O [Dalbavancin, dalbavancin]
[4]
  MIC: 0.125 µg/mL (≈ 0.0688 µM)
E. faecalis ATCC 29212
  MIC: 0.125 µg/mL (≈ 0.0688 µM)
S. pyogenes ATCC 12344
  MIC: ≤ 0.003 µg/mL
[2]; estimated
  half-life: 220 to 288 h
MRSA
  MIC (literature): 0.06 ([68], [69]) µg/ml
MRSA ATCC 43300; Corning flat TC plate, MHB −T80, no additive
  MIC: 4 µg/mL (≈ 2.2 µM)
MRSA ATCC 43300; Trek PS, MH + 2% LHB, 2% LS
  MIC: 0.125 µg/mL
MRSA ATCC 43300; Trek PS, MH + 2% LHB, no additive
  MIC: 0.125 µg/mL
S. aureus ATCC 29123; CLSI-consistent value, 0.002% polysorbate 80
  MIC: 0.06 µg/mL (≈ 0.033 µM)
S. aureus ATCC 29123; dilutions in contact with plastic for as little as 30 min before inoculation with surfactant-containing media
  MIC: 2 to 8 µg/mL
